Data on 2 compounds can be found in US20260263424A1, “Formulations of 2-Arylbenzimidazole Compounds” (Tranquis Therapeutics, Inc., priority 2022, published 2026).

Like-named read-outs stand apart in the source and are kept apart here.

The conditions of series [1]: human, in vivo.
For series [2] the following is noted: male, human, in vivo, 120 mg, 7 days.
The conditions of series [3]: cited from earlier work.
Series [4] concerns Ppargc1α (PGC-1α) expression. The settings on record: Zhang et al., Diabetes 62:1297-1307 (2013); cited from earlier work.
The test system of series [5] is murine models of neurodegenerative diseases, including Parkinson's disease, Alzheimer's disease, and amyotrophic lateral sclerosis (ALS). The settings on record: administered orally at 25 mg/kg; cited from earlier work.
For series [6] the following is noted: WO 2021/262617; cited from earlier work.
Series [7] in a line: Multiple dose phase 1 trial, plasma pharmacokinetics of compound 1 SDD formulation QD for 7 days. The conditions noted are these: for AR AUC (accumulation ratio based on AUC(0-tau)) / AR Cmax (accumulation ratio): Day 7, plasma.
Series [8] is described as follows: Single ascending dose (SAD) phase 1 trial, plasma pharmacokinetics of MC, SDD and HME formulations. The conditions noted are these: for Frel Cmax/D (relative bioavailability, geometric mean): dose normalized comparison to Regimen C: 540 mg compound 1 MC formulation; for AUC(0-last) (geometric mean): fasted, plasma.
Where [9] appears, read: Regimen I: 120 mg compound 1 SDD formulation QD, fasted.
The mark [10] stands for this setting: Regimen J: 90 mg compound 1 SDD formulation QD, fed.
The mark [11] stands for this setting: Regimen K: 300 mg compound 1 SDD formulation QD, fed.

With `CC(C)(C)c1ccc(-c2nc3cc(O)ccc3[nH]2)cc1` [Compound 2, 2-(4-(tert-butyl)phenyl)-1H-benzo[d]imidazol-5-ol], the “dose proportionality of Cmax, AUC(0-24) and AUC(0-inf)” value in series [1] (180 mg) is on record as “proportionally”. Also, the “Frel Cmax (relative bioavailability, geometric mean)” value in series [1] (male, 180 mg) was 64.9%. For the same compound, in series [1] (male, po, 180 mg), the “T1/2 (geometric mean)” value was found to be 9.17 h and the “Tmax (median)” value is 2 h. In series [1] (male, po, 270 mg), the “Cmax (geometric mean)” value was 621 ng/mL and the “Tmax (median)” value is 2 h. Also, in series [2], the “AR AUC (accumulation ratio based on AUC(0-tau))” value is 1.46.
On to `CC(C)(C)c1ccc(-c2nc3ccccc3[nH]2)cc1` [Compound 1, 2-(4-tert-butylphenyl)-1H-benzimidazole], for which, in series [3], the “solubility under aqueous conditions” value is given as “highly insoluble”. The “effect on Ppargc1α (PGC-1α) expression” value in series [4] is on record as “activator”. The disease severity entry in series [5] is “reduce disease severity”. For the same compound, in series [5], the myeloid-mediated inflammation entry is reported as “suppress myeloid-mediated inflammation”. For the same compound, in series [6], the “treating systemic immune activation” value is reported as “effective”. Also, the “AR AUC (accumulation ratio based on AUC(0-tau))” value in series [7] (setting [9]) turned out to be 1.58; in series [7] (setting [10]), 1.24; in series [7] (setting [11]), 1.66. In addition, the entries for the “AR Cmax (accumulation ratio)” value in series [7] (setting [9]), in series [7] (setting [10]) and in series [7] (setting [11]) were 1.59, 1.03 and 1.74, respectively. The “maximum individual AUC(0-tau) as share of the AUC(0-tau) exposure limit” value in series [7] (Regimen J: 90 mg compound 1 SDD formulation, fed, Day 1) turned out to be 10.9%. Besides, the “dose proportionality of Cmax, AUC(0-24) and AUC(0-inf)” value in series [8] (MC formulation, single doses of 60 and 180 mg compound 1) is reported as “slightly sub-proportionally”. Besides, the “Frel Cmax/D (relative bioavailability, geometric mean)” value in series [8] (Regimen D 180 mg compound 1 SDD formulation) turned out to be 218%; in series [8] (Regimen E 180 mg compound 1 HME formulation), 124%. Also, the “AUC(0-last) (geometric mean)” value came out at 611 ng·h/mL in series [8] (Regimen D: single oral 180 mg compound 1 SDD formulation) and 360 ng·h/mL in series [8] (Regimen E: single oral 180 mg compound 1 HME formulation). Besides, in series [8] (Regimen E 180 mg compound 1 HME formulation, comparison to Regimen D 180 mg compound 1 SDD formulation), the “Frel Cmax (relative bioavailability, geometric mean)” value worked out at 56.6%.
